# US11014955B2, “Cyclic peroxides as prodrugs for selective delivery of agents” (THE REGENTS OF THE UNIVERSITY OF CALIFORNIA, priority 2014, dated 2021)
# System: P. falc FCB
# Assay: Biological activity EC50, P. falc FCB
# Assay type: cell-based
# Details: Plasmodium falciparum; Target (Cell Line): P. falc FCB
row,Compound,EC50
1,"CN(C)c1cccc2c(S(=O)(=O)NCCCNC3CCC4(CC3)OOC3(O4)C4CC5CC(C4)CC3C5)cccc12 (centres unmarked) [Example 19, 5-(dimethylamino)-N-[3-({dispiro[adamantane-2,2′-[1,3,5]trioxolane-4′,1″-cyclohexane]-4″-yl}amino)propyl]naphthalene-1-sulfonamide]",14.6 nM
2,"CN(C)c1cccc2c(S(=O)(=O)OC34CC5CC(C3)C3(OOC6(CCCCC6)O3)C(C5)C4)cccc12 (centres unmarked) [Example 18, dispiro[adamantane-2,2′-[1,3,5]trioxolane-4′,1″-cyclohexane]-7-yl 5-(dimethylamino)naphthalene-1-sulfonate]",17.9 nM
